Measured values taken from patent US9604946B2, “Methods for modulating bacterial virulence and related compounds” (priority 2013, dated 2017).

Experiments:
EHEC = test: qRT-PCR of gene expression in EHEC as change from wild-type expression; format: cell-based, enterohemorrhagic E. coli; conditions: 5 and 500 nM compound
A. baumannii = test: Biofilm formation by A. baumannii; format: cell-based, Acinetobacter baumannii; conditions: acts through QseC
QseC = QseC (Escherichia coli O157:H7, UniProt Q8X524); conditions: earlier work, U.S. Pat. No. 8,252,841; Clarke et al., 2006; Rasko et al., 2008; cited from earlier work
QseC, sequence (Q8X524 whole entry): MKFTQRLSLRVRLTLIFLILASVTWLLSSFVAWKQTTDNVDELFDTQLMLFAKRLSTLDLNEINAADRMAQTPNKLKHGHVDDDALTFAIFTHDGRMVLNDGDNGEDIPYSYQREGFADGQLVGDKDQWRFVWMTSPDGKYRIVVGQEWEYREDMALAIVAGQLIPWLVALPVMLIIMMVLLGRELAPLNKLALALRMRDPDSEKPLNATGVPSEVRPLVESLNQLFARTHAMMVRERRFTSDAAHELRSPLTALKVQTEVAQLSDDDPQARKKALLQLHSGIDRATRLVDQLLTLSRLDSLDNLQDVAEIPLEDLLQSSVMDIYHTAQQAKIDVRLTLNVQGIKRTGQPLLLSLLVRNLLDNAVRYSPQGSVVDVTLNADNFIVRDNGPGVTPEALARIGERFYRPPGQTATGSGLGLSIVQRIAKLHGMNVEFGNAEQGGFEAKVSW

S. Typhimurium = S. Typhimurium replication in J774 macrophages with and without compound; format: cell-based; conditions: 500 and 5 nM compound
Protocol: Compounds CF325, CF326, CF327, CF329, CF330, CF331, CF332, CF333, CF334, CF338, CF339, CF340, CF341, CF342, CF343, CF344, CF345, CF349, CF350, CF351, and CF352 were screened by measuring the inhibition of S. Typhimurium replication in the presence (500 and 5 nM) and absence of the compound with J774 macrophage or using a qRT PCR study comparing the levels of gene expression in the presence of 5 and 500 nM concentrations of the target compound. Compounds CF331, CF338, CF340, CF341 and CF345 were also screened using a fluorescein actin staining test to determine the number of HeLa cells infected by measuring the inhibition of AE lesion formation.

| Structure (SMILES) | activity on virulence of EHEC (gene expression level by qRT-PCR) (EHEC) | modulation of S. Typhimurium virulence (intra J774 macrophage replication) (S. Typhimurium) | further results |
| --- | --- | --- | --- |
| O=C(Nc1nccs1)C12CC3CC(CC(C3)C1)C2 [CF331] | antagonist activity against the virulence of EHEC | – | rank of modulation of bacterial virulence among the EHEC antagonist compounds (EHEC): greatest modulation of bacterial virulence |
| Cc1ccc(N(CC2=NCCN2)c2cccc(O)c2)cc1 [phentolamine] | – | – | inhibition of biofilm formation (A. baumannii): inhibited; block of QseC response to the signal (QseC): block this response |
| COc1cccc(OC)c1C(=O)Nc1nccs1 [CF332] | – | showed little modulation of the virulence of S. Typhimurium | – |
| CC12CC3CC(C)(C1)CC(C(=O)Nc1ncc(F)s1)(C3)C2 [CF354] | antagonist activity against the virulence of EHEC | – | – |
| COc1ccc(C(=O)Nc2nccs2)c(OC)c1 [CF326] | antagonist activity against the virulence of EHEC | showed potency in preventing S. Typhimurium virulence | – |
| CC12CC3CC(C)(C1)CC(C(=O)Nc1nccs1)(C3)C2 [CF345] | antagonist activity against the virulence of EHEC | – | rank of modulation of bacterial virulence among the EHEC antagonist compounds (EHEC): greatest modulation of bacterial virulence |
| COc1ccc(C(=O)Nc2nc(-c3ccc(C)cc3)cs2)c(OC)c1 [CF329] | antagonist activity against the virulence of EHEC | showed little modulation of the virulence of S. Typhimurium | – |
| O=S(=O)(Nc1ccccc1)c1ccc(NC(=S)Nc2ccccc2)cc1 [LED209] | – | – | block of QseC response to the signal (QseC): can block the QseC response to the signal |
| O=C(Nc1nccs1)c1c(F)cc(F)cc1F [CF325] | – | showed potency in preventing S. Typhimurium virulence | – |
| CC12CC3CC(C)(C1)CC(C(=O)Nc1ncco1)(C3)C2 [CF349] | acted as agonist of virulence | – | – |
| COc1ccc(C(=O)Nc2ncc[nH]2)c(OC)c1 [CF330] | acted as agonist of virulence | – | – |
| O=C(Nc1nccs1)c1c(Cl)cc(Cl)cc1Cl [CF334] | acted as agonist of virulence | – | – |
| CC12CC3CC(C)(C1)CC(C(=O)Nc1nc(C#N)cs1)(C3)C2 [CF352] | antagonist activity against the virulence of EHEC | – | – |
| CC(=O)Nc1nccs1 [CF327] | acted as agonist of virulence | showed little modulation of the virulence of S. Typhimurium | – |
| COc1ccc(C(=O)Nc2nc(C)c(C)s2)c(OC)c1 [CF333] | antagonist activity against the virulence of EHEC | – | – |
| CCOC(=O)c1csc(NC(=O)C23CC4CC(C)(CC(C)(C4)C2)C3)n1 [CF351] | acted as agonist of virulence | – | – |
